Results as given in US9404081B2, “Pyruvate kinase activators for use in therapy” (AGIOS PHARMACEUTICALS, INC., priority 2011, dated 2016).

How the values were obtained:
Type in all cases: biochemical
[1] = molecular target: PKR T384W (Homo sapiens, UniProt P30613, T384W); experiment: PKR T384W Single Point Percent Activation Assay; conditions: read-out: Act. % 384W
Protocol: PKR T384W Single Point Percent Activation Assay
(§1) A compound described herein was diluted with DMSO and tested at 1 μM concentration. The enzyme was diluted in 1× Buffer: (100 mM KCl, 50 mM Tris 7.5, 5 mM MgCl2, 1 mM DTT, 0.03% BSA). 2 μL of compound solution was first added into wells, and then 180 μL enzyme solution was added. Assays were assembled except for ADP, and plates were stored for 60 minutes at RT. 20 μL ADP was added to start the assay and assay output was evaluated using OD340 at SpectraMax. The assay was run at room temperature.
Final concentration: PKR T384W soluble (300 ng/well), Tris pH 7.5 (50 mM), KCl (100 mM), MgCl2 (5 mM), ADP (0.08 mM), PEP (0.23 mM), NADH (180 μM), LDH (0.5 units, Sigma 59023), DTT (1 mM) and BSA (0.03%).

[2] = molecular target: PKR wt (Homo sapiens, UniProt P30613); experiment: PKR WT Single Point Percent Activation Assay
Protocol: PKR WT Single Point Percent Activation Assay
as §1, with “180 μL of enzyme solution” for “180 μL enzyme solution”
Final concentration: PKR wt (100 ng/well), Tris pH 7.5 (50 mM), KCl (100 mM), MgCl2 (5 mM), ADP (0.48 mM), PEP (0.15 mM), NADH (180 μM), LDH (0.5 units, Sigma 59023), DTT (1 mM) and BSA (0.03%).

[3] = molecular target: PKR R510Q (Homo sapiens, UniProt P30613, R510Q); experiment: PKR R510Q Single Point Percent Activation Assay; conditions: read-out: Act. % 510Q
Protocol: PKR R510Q Single Point Percent Activation Assay
as §1, with “180 μL of enzyme solution” for “180 μL enzyme solution”
Final concentration: PKR R510Q (40 ng/well), Tris pH 7.5 (50 mM), KCl (100 mM), MgCl2 (5 mM), ADP (0.2 mM), PEP (0.11 mM), NADH (180 μM), LDH (0.5 units, Sigma 59023), DTT (1 mM) and BSA (0.03%).

[4] = molecular target: PKR R532W (Homo sapiens, UniProt P30613, R532W); experiment: PKR R532W Single Point Percent Activation Assay; conditions: read-out: Act, % 532W
Protocol: PKR R532W Single Point Percent Activation Assay
as §1, with “180 μL of enzyme solution” for “180 μL enzyme solution”
Final concentration: PKR R532W (100 ng/well), Tris pH 7.5 (50 mM), KCl (100 mM), MgCl2 (5 mM), ADP (0.36 mM), PEP (0.1 mM), NADH (180 μM), LDH (0.5 units, Sigma 59023), DTT (1 mM) and BSA (0.03%).

Sequence of PKR R532W (P30613 whole entry R532W): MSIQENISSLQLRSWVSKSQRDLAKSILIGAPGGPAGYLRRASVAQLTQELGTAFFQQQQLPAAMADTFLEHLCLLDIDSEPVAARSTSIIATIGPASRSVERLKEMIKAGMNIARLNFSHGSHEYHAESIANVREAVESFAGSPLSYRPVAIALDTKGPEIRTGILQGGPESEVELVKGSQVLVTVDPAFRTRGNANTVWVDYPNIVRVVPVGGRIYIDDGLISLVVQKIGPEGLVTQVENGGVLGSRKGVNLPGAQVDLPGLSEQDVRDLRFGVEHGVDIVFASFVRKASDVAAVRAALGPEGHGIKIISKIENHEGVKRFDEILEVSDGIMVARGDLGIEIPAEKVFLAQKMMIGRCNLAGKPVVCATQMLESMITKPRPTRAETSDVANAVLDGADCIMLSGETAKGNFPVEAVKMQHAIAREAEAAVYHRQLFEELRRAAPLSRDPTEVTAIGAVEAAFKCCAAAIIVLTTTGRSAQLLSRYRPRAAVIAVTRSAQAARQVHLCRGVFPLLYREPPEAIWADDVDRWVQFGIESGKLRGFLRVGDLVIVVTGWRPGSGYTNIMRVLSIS
Sequence of PKR wt (P30613 whole entry): as the sequence (P30613 whole entry R532W) above, with W532R counted along it
Sequence of PKR R510Q (P30613 whole entry R510Q): as the sequence (P30613 whole entry R532W) above, with R510Q, W532R counted along it
Sequence of PKR T384W (P30613 whole entry T384W): as the sequence (P30613 whole entry R532W) above, with T384W, W532R counted along it

SMILES	activation at 1 µM [1] [%]	activation at 1 µM [2] [%]	activation at 1 µM [3] [%]	activation at 1 µM [4] [%]
C[C@H]1CN(C(=O)c2ccc(NS(=O)(=O)c3cccc4cccnc34)cc2)CCN1Cc1ccccc1	101 to 500	101 to 500	101 to 500	101 to 500
C[C@H]1CN(Cc2ccccc2)CCN1C(=O)c1ccc(NS(=O)(=O)c2cccc3cccnc23)cc1	101 to 500	101 to 500	101 to 500	101 to 500
C[C@@H]1CN(Cc2ccccc2)CCN1C(=O)c1ccc(NS(=O)(=O)c2cccc3cccnc23)cc1	101 to 500	101 to 500	101 to 500	101 to 500
C[C@H]1CN(Cc2ccccc2F)CCN1C(=O)c1ccc(NS(=O)(=O)c2cccc3cccnc23)cc1	101 to 500	101 to 500	1 to 100	101 to 500
C[C@H]1CN(CC2CC2)CCN1C(=O)c1ccc(NS(=O)(=O)c2cccc3cccnc23)cc1	1 to 100	101 to 500	1 to 100	101 to 500
C[C@H]1CN(Cc2cc(F)c(F)cc2F)CCN1C(=O)c1ccc(NS(=O)(=O)c2cccc3cccnc23)cc1	101 to 500	1 to 100	1 to 100	1 to 100
COc1cccc(CN2CCN(C(=O)c3ccc(NS(=O)(=O)c4cccc5cccnc45)cc3)[C@@H](C)C2)c1OC	101 to 500	101 to 500	1 to 100	1 to 100
C[C@@H]1CN(CC2CCCO2)CCN1C(=O)c1ccc(NS(=O)(=O)c2cccc3cccnc23)cc1 (some centres unmarked)	1 to 100	101 to 500	101 to 500	101 to 500
C[C@@H]1CN(Cc2cc(F)cc(F)c2F)CCN1C(=O)c1ccc(NS(=O)(=O)c2cccc3cccnc23)cc1	1 to 100	1 to 100	1 to 100	101 to 500
C[C@@H]1CN(Cc2cc(F)c(F)c(F)c2)CCN1C(=O)c1ccc(NS(=O)(=O)c2cccc3cccnc23)cc1	1 to 100	1 to 100	101 to 500	1 to 100
C[C@@H]1CN(Cc2ccccc2F)CCN1C(=O)c1ccc(NS(=O)(=O)c2cccc3cccnc23)cc1	101 to 500	101 to 500	101 to 500	101 to 500
C[C@@H]1CN(CC2CCCCC2)CCN1C(=O)c1ccc(NS(=O)(=O)c2cccc3cccnc23)cc1	1 to 100	101 to 500	101 to 500	101 to 500
C[C@H]1CN(Cc2ccc(F)cc2)CCN1C(=O)c1ccc(NS(=O)(=O)c2cccc3cccnc23)cc1	101 to 500	101 to 500	101 to 500	1 to 100
C[C@H]1CN(CC2CCCCC2)CCN1C(=O)c1ccc(NS(=O)(=O)c2cccc3cccnc23)cc1	1 to 100	1 to 100	1 to 100	101 to 500
C[C@H]1CN(Cc2cc(F)c(F)c(F)c2)CCN1C(=O)c1ccc(NS(=O)(=O)c2cccc3cccnc23)cc1	101 to 500	1 to 100	1 to 100	1 to 100
C[C@H]1CN(CC2CCCCO2)CCN1C(=O)c1ccc(NS(=O)(=O)c2cccc3cccnc23)cc1 (some centres unmarked)	1 to 100	1 to 100	1 to 100	1 to 100
CC(c1ccc(Cl)c(F)c1)N1CCN(C(=O)c2ccc(NS(=O)(=O)c3cccc4cccnc34)cc2)[C@H](C)C1 (some centres unmarked)	101 to 500	1 to 100	101 to 500	1 to 100
CC(c1cc(F)c(F)c(F)c1)N1CCN(C(=O)c2ccc(NS(=O)(=O)c3cccc4cccnc34)cc2)[C@H](C)C1 (some centres unmarked)	101 to 500	1 to 100	101 to 500	1 to 100

SMILES	activation at 1 µM [1] [%]	activation at 1 µM [2] [%]	activation at 1 µM [3] [%]	activation at 1 µM [4] [%]
CC(c1c(F)cccc1F)N1CCN(C(=O)c2ccc(NS(=O)(=O)c3cccc4cccnc34)cc2)[C@H](C)C1 (some centres unmarked)	1 to 100	1 to 100	101 to 500	1 to 100
CC(c1ccc(F)cc1F)N1CCN(C(=O)c2ccc(NS(=O)(=O)c3cccc4cccnc34)cc2)[C@H](C)C1 (some centres unmarked)	1 to 100	101 to 500	1 to 100	1 to 100
CC[C@H]1CN(C(C)c2cc(F)cc(F)c2)CCN1C(=O)c1ccc(NS(=O)(=O)c2cccc3cccnc23)cc1 (some centres unmarked)	1 to 100	1 to 100	1 to 100	1 to 100
CC[C@H]1CN(C(C)c2cc(F)c(F)c(F)c2)CCN1C(=O)c1ccc(NS(=O)(=O)c2cccc3cccnc23)cc1 (some centres unmarked)	1 to 100	1 to 100	1 to 100	1 to 100
C[C@@H]1CN(CC2CCCCO2)CCN1C(=O)c1ccc(NS(=O)(=O)c2cccc3cccnc23)cc1 (some centres unmarked)	101 to 500	101 to 500	1 to 100	101 to 500
C[C@H]1CN(Cc2c(F)cc(F)cc2F)CCN1C(=O)c1ccc(NS(=O)(=O)c2cccc3cccnc23)cc1	101 to 500	1 to 100	1 to 100	101 to 500
O=C(c1ccc(NS(=O)(=O)c2cccc3cccnc23)cc1)N1CCN(Cc2ccc(F)cc2)c2ccccc21	1 to 100	1 to 100	1 to 100	1 to 100
CCOC(=O)N1CCN(C(=O)c2ccc(NS(=O)(=O)c3cccc4cccnc34)cc2)c2ccccc21	1 to 100	101 to 500	101 to 500	101 to 500
O=C(c1ccc(NS(=O)(=O)c2cccc3cccnc23)cc1)N1CCN(Cc2ccc(F)cc2)C[C@@H]1c1ccccc1	1 to 100	1 to 100	1 to 100	1 to 100
C[C@H]1CN(C(=O)O[C@@H]2CCOC2)CCN1C(=O)c1ccc(NS(=O)(=O)c2cccc3cccnc23)cc1	101 to 500	101 to 500	1 to 100	101 to 500
CC(c1c(F)cc(F)cc1F)N1CCN(C(=O)c2ccc(NS(=O)(=O)c3cccc4cccnc34)cc2)[C@H](C)C1 (some centres unmarked)	101 to 500	101 to 500	1 to 100	101 to 500
CC(c1cc(F)c(F)cc1F)N1CCN(C(=O)c2ccc(NS(=O)(=O)c3cccc4cccnc34)cc2)[C@H](C)C1 (some centres unmarked)	1 to 100	101 to 500	101 to 500	101 to 500
CC(c1ccc(F)cc1F)N1CCN(C(=O)c2ccc(NS(=O)(=O)c3cccc4cccnc34)cc2)[C@@H](C)C1 (some centres unmarked)	101 to 500	101 to 500	1 to 100	101 to 500
CC(c1cc(F)cc(F)c1)N1CCN(C(=O)c2ccc(NS(=O)(=O)c3cccc4cccnc34)cc2)[C@@H](C)C1 (some centres unmarked)	1 to 100	1 to 100	1 to 100	1 to 100
CC(c1ccc(F)cc1)N1CCN(C(=O)c2ccc(NS(=O)(=O)c3cccc4cccnc34)cc2)[C@@H](C)C1 (some centres unmarked)	101 to 500	101 to 500	101 to 500	101 to 500
CC(c1c(F)cc(F)cc1F)N1CCN(C(=O)c2ccc(NS(=O)(=O)c3cccc4cccnc34)cc2)[C@@H](C)C1 (some centres unmarked)	101 to 500	101 to 500	101 to 500	101 to 500
CC(c1cc(F)c(F)cc1F)N1CCN(C(=O)c2ccc(NS(=O)(=O)c3cccc4cccnc34)cc2)[C@@H](C)C1 (some centres unmarked)	101 to 500	101 to 500	1 to 100	101 to 500
